Patent US20260041617A1, “COSMETIC COMPOSITION APPLICABLE TO THE SKIN AND BASED ON A VOLATILE MIXTURE OF ALKANES” (BIOSYNTHIS, priority 2022, published 2026)

Experiment: Biodegradability by OECD 301F method (manometric respirometry test)
Method: For the purposes of the present invention, the OECD 301F method makes it possible to assess the biodegradability of a substance by a manometric respirometry test.
The biodegradability of a volatile mixture of alkanes used in the cosmetic compositions applicable to the skin according to the invention was measured according to the OECD 301F method. For comparison, the degradation of isododecane (CAS 13475-82-6) was also measured with this method.
The OECD 301F method is used to characterize the ease of biodegradation of a substance by a manometric respirometry test.

Percentage of degradation according to the OECD 301F method: 0%
biodegradable according to the OECD 301F method (result in words): not biodegradable
SMILES: CC(CC(C)(C)C)CC(C)(C)C [Isododecane (CAS 13475-82-6), 2,2,4,6,6-pentamethylheptane]
